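The compound was tested at five concentrations on cells cultured in 96-well plates, with a 48-hour exposure period. GI50: concentration for 50% inhibition of growth.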 Active and inactive are the calls of the source. Rule as the data show it: active = GI50 up to about 1.1 µM and inactive = higher.
What was measured:
Assay in all cases: DTP human tumour cell line panel, 48 h
Malme-3M = tested on: Malme-3M
HCT-15 = tested on: HCT-15
OVCAR-3 = tested on: OVCAR-3
SK-OV-3 = tested on: SK-OV-3
RPMI-8226 = tested on: RPMI-8226
NCI-H226 = tested on: NCI-H226
OVCAR-8 = tested on: OVCAR-8
TK-10 = tested on: TK-10
UO-31 = tested on: UO-31
OVCAR-4 = tested on: OVCAR-4
NCI-H460 = tested on: NCI-H460
HT-29 = tested on: HT-29
U-251 = tested on: U-251
DU-145 = tested on: DU-145
MDA-MB-435 = tested on: MDA-MB-435
SW-620 = tested on: SW-620
CAKI-1 = tested on: CAKI-1
SF-539 = tested on: SF-539
PC-3 = tested on: PC-3
T47D = tested on: T47D

Measured: GI50

COc1ccc2c(c1)C(=O)CCc1cc(OC)c(OC)c(OC)c1-2
active: Malme-3M 0.0304 µM | OVCAR-3 0.0409 µM | SK-OV-3 < 0.01 µM | RPMI-8226 0.0631 µM | NCI-H226 0.0258 µM | OVCAR-8 0.0513 µM | UO-31 0.0631 µM | OVCAR-4 0.0582 µM | NCI-H460 0.0413 µM | HT-29 0.0374 µM | U-251 0.0285 µM | DU-145 0.0335 µM | MDA-MB-435 0.0204 µM | SW-620 0.0716 µM | CAKI-1 0.127 µM | SF-539 < 0.01 µM | PC-3 0.0474 µM
inactive: TK-10 15.1 µM
0.0359 µM: HCT-15

O=c1c2ccccc2[nH]c2c(O)ccc(O)c12
17.9 µM: HCT-15
inactive: Malme-3M 24 µM | OVCAR-3 16.6 µM | SK-OV-3 25.7 µM | RPMI-8226 22.8 µM | NCI-H226 25.6 µM | OVCAR-8 17.9 µM | TK-10 26.3 µM | UO-31 37.7 µM | OVCAR-4 3.39 µM | NCI-H460 24.9 µM | HT-29 38.6 µM | U-251 15.1 µM | SW-620 18 µM | CAKI-1 13.9 µM | SF-539 27.6 µM

CCNc1cc2c(cc1O)CC[C@@H]1[C@@H]2CC[C@]2(C)[C@@H](O)CC[C@@H]12
active: NCI-H460 0.489 µM
inactive: Malme-3M 3.75 µM | RPMI-8226 2.31 µM | NCI-H226 2.82 µM | OVCAR-8 11.7 µM | TK-10 19.5 µM | UO-31 6.75 µM | T47D 6.04 µM | OVCAR-4 8.26 µM | HT-29 15.8 µM | U-251 1.61 µM | SW-620 2.82 µM | CAKI-1 13.5 µM | PC-3 9.91 µM
0.942 µM: HCT-15

FC(F)(F)c1nc2cc(SSc3cc4nc(C(F)(F)F)[nH]c4cc3Cl)c(Cl)cc2[nH]1
> 100 µM: HCT-15
inactive: Malme-3M 82.8 µM | OVCAR-3 45.2 µM | SK-OV-3 > 100 µM | RPMI-8226 > 100 µM | NCI-H226 53.3 µM | OVCAR-8 > 100 µM | TK-10 > 100 µM | OVCAR-4 92.5 µM | NCI-H460 > 100 µM | HT-29 > 100 µM | U-251 > 100 µM | DU-145 > 100 µM | MDA-MB-435 > 100 µM | SW-620 > 100 µM | CAKI-1 > 100 µM | SF-539 > 100 µM | PC-3 > 100 µM

COc1ccc(/C=C2\NC(=S)N(CN3CCCCC3)C2=O)cc1
inactive: Malme-3M 30.3 µM | OVCAR-3 71.6 µM | SK-OV-3 > 100 µM | RPMI-8226 27.1 µM | NCI-H226 42.2 µM | OVCAR-8 15.4 µM | TK-10 83.6 µM | UO-31 37.1 µM | OVCAR-4 20 µM | HT-29 18.3 µM | U-251 61.7 µM | DU-145 71 µM | MDA-MB-435 52.7 µM | SW-620 29.3 µM | PC-3 78.7 µM
24.6 µM: HCT-15

N#Cc1cc(C#N)c(N)nc1N
> 100 µM: HCT-15
inactive: Malme-3M > 100 µM | OVCAR-3 > 100 µM | SK-OV-3 > 100 µM | RPMI-8226 > 100 µM | NCI-H226 > 100 µM | OVCAR-8 > 100 µM | TK-10 > 100 µM | UO-31 > 100 µM | OVCAR-4 > 100 µM | NCI-H460 > 100 µM | HT-29 > 100 µM | U-251 > 100 µM | DU-145 43.6 µM | MDA-MB-435 > 100 µM | SW-620 > 100 µM | CAKI-1 > 100 µM | SF-539 > 100 µM | PC-3 > 100 µM

COc1ccc(/C(Cl)=C(\C=O)c2ccc([N+](=O)[O-])cc2)cc1
inactive: Malme-3M 15.6 µM | OVCAR-3 18.4 µM | SK-OV-3 33 µM | RPMI-8226 2.37 µM | NCI-H226 14.1 µM | OVCAR-8 10.9 µM | TK-10 30.1 µM | UO-31 18.5 µM | OVCAR-4 17.5 µM | NCI-H460 18.3 µM | HT-29 4.57 µM | U-251 10.5 µM | SW-620 4.34 µM | CAKI-1 11.1 µM | SF-539 12.6 µM
5.25 µM: HCT-15

O=S(=O)(O)c1cc(/N=N/c2c(O)ccc3ccccc23)ccc1/C=C/c1ccc(/N=N/c2c(O)ccc3ccccc23)cc1S(=O)(=O)O
inactive: Malme-3M 26.9 µM | OVCAR-3 > 100 µM | SK-OV-3 > 100 µM | RPMI-8226 > 100 µM | NCI-H226 > 100 µM | OVCAR-8 > 100 µM | TK-10 > 100 µM | UO-31 > 100 µM | T47D > 100 µM | OVCAR-4 > 100 µM | HT-29 > 100 µM | U-251 > 100 µM | MDA-MB-435 > 100 µM | SW-620 > 100 µM | CAKI-1 > 100 µM | PC-3 > 100 µM
> 100 µM: HCT-15

COC12C=C(C)C(CC1)CC2C(=O)O (centres undefined)
> 100 µM: HCT-15
inactive: Malme-3M > 100 µM | OVCAR-3 > 100 µM | SK-OV-3 > 100 µM | RPMI-8226 > 100 µM | NCI-H226 > 100 µM | OVCAR-8 > 100 µM | TK-10 > 100 µM | UO-31 > 100 µM | OVCAR-4 > 100 µM | NCI-H460 > 100 µM | HT-29 > 100 µM | U-251 > 100 µM | SW-620 > 100 µM | CAKI-1 > 100 µM | SF-539 > 100 µM

C=CCSc1ncnc2c1ncn2C1OC(CO)C(O)C1O (centres undefined)
inactive: Malme-3M > 100 µM | OVCAR-3 11.4 µM | SK-OV-3 30.5 µM | RPMI-8226 32.5 µM | NCI-H226 > 100 µM | OVCAR-8 3.85 µM | TK-10 68.7 µM | UO-31 42.1 µM | OVCAR-4 > 100 µM | NCI-H460 38.9 µM | HT-29 32.6 µM | U-251 > 100 µM | SW-620 14.4 µM | CAKI-1 17.7 µM | SF-539 37.5 µM
7.94 µM: HCT-15

CC[C@@H](C)[C@@H]1NC(=O)C(C(C)=O)=C1O
20.2 µM: HCT-15
active: CAKI-1 0.456 µM
inactive: Malme-3M 25.1 µM | OVCAR-3 27.6 µM | SK-OV-3 23.2 µM | RPMI-8226 26.2 µM | NCI-H226 31.7 µM | OVCAR-8 24.9 µM | TK-10 40.6 µM | UO-31 30.4 µM | OVCAR-4 27.1 µM | NCI-H460 15.3 µM | HT-29 32.1 µM | U-251 18.8 µM | SW-620 24.2 µM | SF-539 23.1 µM

CCCCCC/C=C1\CCC(CN2CCOCC2)C1=O (centres undefined)
inactive: Malme-3M 16.3 µM | OVCAR-3 18.5 µM | SK-OV-3 35.8 µM | RPMI-8226 2.24 µM | NCI-H226 16 µM | OVCAR-8 16.8 µM | TK-10 13.4 µM | UO-31 14.3 µM | OVCAR-4 20.4 µM | NCI-H460 38.7 µM | HT-29 17.7 µM | U-251 15.5 µM | SW-620 8.2 µM | CAKI-1 16.8 µM | SF-539 16.9 µM
8.67 µM: HCT-15

Cn1c(=O)cc2[nH]c3ccccc3n2c1=O
33.7 µM: HCT-15
inactive: Malme-3M > 100 µM | OVCAR-3 > 100 µM | SK-OV-3 48.8 µM | RPMI-8226 > 100 µM | NCI-H226 55.6 µM | OVCAR-8 43.8 µM | TK-10 81.7 µM | UO-31 93.3 µM | OVCAR-4 27 µM | NCI-H460 57.5 µM | HT-29 49.3 µM | U-251 16.2 µM | SW-620 22.7 µM | CAKI-1 > 100 µM | SF-539 20.3 µM

Nc1nc2[nH]cnc2c(=O)[nH]1
inactive: Malme-3M > 100 µM | OVCAR-3 > 100 µM | SK-OV-3 > 100 µM | RPMI-8226 > 100 µM | NCI-H226 > 100 µM | OVCAR-8 > 100 µM | TK-10 > 100 µM | UO-31 > 100 µM | OVCAR-4 > 100 µM | NCI-H460 > 100 µM | HT-29 > 100 µM | U-251 > 100 µM | SW-620 > 100 µM | CAKI-1 > 100 µM | SF-539 > 100 µM
> 100 µM: HCT-15

COc1cccc2c1C(=O)c1c(O)c3c(c(O)c1C2=O)C[C@@](O)(C(=O)CO)CC3OC1CC(NCCOCC(OC(C)=O)OC(C)=O)C(O)C(C)O1 (some centres undefined)
active: Malme-3M < 0.01 µM | OVCAR-3 < 0.01 µM | SK-OV-3 < 0.01 µM | RPMI-8226 < 0.01 µM | NCI-H226 < 0.01 µM | OVCAR-8 < 0.01 µM | TK-10 < 0.01 µM | UO-31 < 0.01 µM | OVCAR-4 < 0.01 µM | NCI-H460 < 0.01 µM | HT-29 < 0.01 µM | U-251 0.00925 µM | SW-620 < 0.01 µM | CAKI-1 0.01 µM | SF-539 < 0.01 µM
< 0.01 µM: HCT-15

COC(=O)[C@@]1(C(C)CC(=O)O)CCCCC1=O (some centres undefined)
inactive: Malme-3M > 100 µM | OVCAR-3 > 100 µM | SK-OV-3 > 100 µM | RPMI-8226 34.3 µM | NCI-H226 > 100 µM | OVCAR-8 > 100 µM | TK-10 > 100 µM | UO-31 > 100 µM | OVCAR-4 > 100 µM | NCI-H460 > 100 µM | HT-29 > 100 µM | U-251 > 100 µM | CAKI-1 > 100 µM | SF-539 > 100 µM
42.6 µM: HCT-15

Cn1cnc([N+](=O)[O-])c1Sc1nc2ccccc2o1
inactive: Malme-3M 5.41 µM | OVCAR-3 5.81 µM | SK-OV-3 22.8 µM | RPMI-8226 3.45 µM | NCI-H226 15.1 µM | OVCAR-8 2.82 µM | TK-10 10.5 µM | UO-31 12.2 µM | OVCAR-4 4.35 µM | NCI-H460 32.3 µM | HT-29 3.44 µM | U-251 12.6 µM | SW-620 3.72 µM | CAKI-1 1.9 µM | SF-539 9.64 µM
2.77 µM: HCT-15

Source: ChEMBL document CHEMBL1201862, “PubChem BioAssay data set” (2004)
